Measured values as given in US20180370940A1, “SALICYLIC ACID DERIVATIVE, METHOD FOR PREPARING SAME, AND COSMETIC COMPOSITION FOR WHITENING COMPRISING SAME” (AMOREPACIFIC CORPORATION, priority 2015, published 2018).

Test system: Mushroom-derived tyrosinase
Assay: Inhibitory effect on tyrosinase activity (mushroom tyrosinase, L-tyrosine substrate, absorbance at 490 nm)
Assay type: biochemical
Conditions: for inhibitory effect on tyrosinase activity (in words): at a concentration of 200 μM or less; for IC50: mushroom tyrosinase, 1.5 mM L-tyrosine, pH 6.5, 37° C. for 20 minutes, absorbance at 490 nm, read-out: Inhibition of tyrosinase activity (IC50)
Protocol: In order to investigate the tyrosinase activity inhibitory effect of the salicylic acid derivatives prepared in Examples 1 to 6, the following experiment was conducted. Mushroom-derived tyrosinase and tyrosine were purchased from Sigma Chemical. Each sample was treated with 150 microliters of 0.1 M phosphate buffer (pH 6.5), 8 microliters of mushroom tyrosinase (2,100 units/ml, 0.05 M phosphate buffer, pH 6.5) and 36 microliters of 1.5 mM L-tyrosine by concentration. After the enzymatic reaction was carried out at 37° C. for 20 minutes, the activity of tyrosinase was measured by measuring the absorbance at 490 nm using a microplate reader (Bio-Rad 3550, Richmond, Calif., U.S.A.). The inhibitory effect of tyrosinase of the salicylic acid derivatives prepared in Examples 1 to 6 was determined based on the following Equation (1). Tyrosinase inhibition ratio (%)=100−((Reaction absorbance of each sample/reaction absorbance of the control group)×100) [Equation 1] The concentration of each test substance which decreased the activity of tyrosinase by 50% was determined by the above Equation, and the obtained results are shown in Table 1.

| Structure (SMILES) | inhibitory effect on tyrosinase activity (in words) | IC50 [µM] |
| --- | --- | --- |
| COc1cccc(C(=O)O)c1O [3-Methoxysalicylic acid, reference compound] | do not exhibit the inhibitory effect | > 200 |
| Cc1cccc(C(=O)O)c1O [3-Methylsalicylic acid, reference compound] | do not exhibit the inhibitory effect | > 200 |
| Cc1cccc(C(=O)OCc2cc(=O)c(O)co2)c1O [Compound of Example 1, 2-hydroxy-3-methyl-benzoic acid 5-hydroxy-4-oxo-4H-pyran-2-ylmethyl ester] | – | 3.2 |
| Cc1ccc(C(=O)OCc2cc(=O)c(O)co2)c(O)c1 [Compound of Example 2, 2-hydroxy-4-methyl-benzoic acid 5-hydroxy-4-oxo-4H-pyran-2-ylmethyl ester] | – | 1.51 |
| Cc1ccc(O)c(C(=O)OCc2cc(=O)c(O)co2)c1 [Compound of Example 3, 2-hydroxy-5-methyl-benzoic acid 5-hydroxy-4-oxo-4H-pyran-2-ylmethyl ester] | – | 5.3 |
| COc1cccc(C(=O)OCc2cc(=O)c(O)co2)c1O [Compound of Example 4, 2-hydroxy-3-methoxy-benzoic acid 5-hydroxy-4-oxo-4H-pyran-2-ylmethyl ester] | – | 4.21 |
| COc1ccc(C(=O)OCc2cc(=O)c(O)co2)c(O)c1 [Compound of Example 5, 2-hydroxy-4-methoxy-benzoic acid 5-hydroxy-4-oxo-4H-pyran-2-ylmethyl ester] | – | 4.2 |
| COc1ccc(O)c(C(=O)OCc2cc(=O)c(O)co2)c1 [Compound of Example 6, 2-Hydroxy-5-methoxy-benzoic acid 5-hydroxy-4-oxo-4H-pyran-2-ylmethyl ester] | – | 3.29 |
| O=c1cc(CO)occ1O [Kojic acid, reference compound] | – | 41 |
